Molecular target: T1, human M4 muscarinic acetylcholine receptor (Homo sapiens, UniProt P08173)
T1 construct: expressed in transfected cells; host or cells: CHO-K1
T1 sequence (P08173 1-479): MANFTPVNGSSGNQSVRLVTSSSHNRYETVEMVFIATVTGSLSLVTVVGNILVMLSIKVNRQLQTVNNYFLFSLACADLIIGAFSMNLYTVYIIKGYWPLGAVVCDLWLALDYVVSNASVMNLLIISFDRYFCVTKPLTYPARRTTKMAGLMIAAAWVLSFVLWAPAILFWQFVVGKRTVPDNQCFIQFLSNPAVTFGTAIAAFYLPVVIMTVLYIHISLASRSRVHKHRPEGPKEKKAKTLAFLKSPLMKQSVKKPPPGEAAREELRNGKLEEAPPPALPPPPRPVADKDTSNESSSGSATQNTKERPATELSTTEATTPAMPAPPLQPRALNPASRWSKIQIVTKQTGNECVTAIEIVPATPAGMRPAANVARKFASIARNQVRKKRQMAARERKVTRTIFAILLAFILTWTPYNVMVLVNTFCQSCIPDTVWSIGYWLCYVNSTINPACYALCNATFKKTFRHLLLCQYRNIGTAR
Test: human FLIPR-based M4 PAM assay (calcium mobilization, CHO-K1 cells with human M4 receptor and Gαqi5)
Type: cell-based
Details: inflection point (IP) of dose response curve, acetylcholine added at 20% of maximum response, read-out: M4 FLIPPR Hu IP
How it was run: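 CHO-K1 cells stably expressing human M4 and Gαqi5, dye-loaded ~1 h at 37 °C, read on FLIPR Tetra. Test compound added at increasing concentrations 4 min before acetylcholine at an EC20 concentration, sometimes followed by an EC70 addition. Dose-response curves fit to a 4-parameter logistic; result is the curve inflection point.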

EC50	SMILES
63 nM	Cc1cn2ccc(-c3nc(C#N)ccc3-c3cnc(CC(F)C4CC4)o3)cc2n1 (centres unmarked) [Example 88, 5-(2-(2-cyclopropyl-2-fluoroethyl)oxazol-5-yl)-6-(2-methylimidazo [1,2-a]pyridin-7-yl)picolinonitrile]
112 nM	Cc1nc2cc(-c3nc(C#N)ccc3-c3cnc(CC(C)(C)F)o3)ccc2n1C [Example 89, 6-(1,2-dimethyl-1H-benzo[d]imidazol-5-yl)-5-(2-(2-fluoro-2-methylpropyl)oxazol-5-yl)picolinonitrile]
31 nM	CCC(C)(F)Cc1ncc(-c2ccc(C#N)nc2-c2ccn3cc(C)nc3c2)o1 (centres unmarked) [Example 90, 5-(2-(2-fluoro-2-methylbutyl)oxazol-5-yl)-6-(2-methylimidazo [1,2-a]pyridin-7-yl)picolinonitrile]
76 nM	Cc1cn2ccc(-c3ncccc3-c3cnc(CC4(F)CCCC4)o3)cc2n1 [Example 91, 2-((1-fluorocyclopentyl)methyl)-5-(2-(2-methylimidazo [1,2-a]pyridin-7-yl)pyridin-3-yl)oxazole]
131 nM	Cc1cn2ccc(-c3nc(C#N)ccc3-c3cnc(CC(O)C(C)C)o3)cc2n1 (centres unmarked) [Example 92, 5-(2-(2-hydroxy-3-methylbutyl)oxazol-5-yl)-6-(2-methylimidazo [1,2-a]pyridin-7-yl)picolinonitrile]
137 nM	COCc1cn2ccc(-c3nc(C#N)ccc3-c3cnc(CC4CC4)o3)cc2n1 [Example 93, 5-(2-(cyclopropylmethyl)oxazol-5-yl)-6-(2-(methoxymethyl)imidazo[1,2-a]pyridin-7-yl)picolinonitrile]
137 nM	CC(Cc1ncc(-c2ccc(C#N)nc2-c2ccn3ccnc3c2)o1)C(F)F (centres unmarked) [Example 94, 5-(2-(3,3-difluoro-2-methylpropyl)oxazol-5-yl)-6-(imidazo[1,2-a]pyridin-7-yl) picolinonitrile]
194 nM	Cc1cn2ccc(-c3nc(C#N)ccc3-c3cnc(CC(C)C(F)(F)F)o3)cc2n1 (centres unmarked) [Example 95, 6-(2-methylimidazo[1,2-a]pyridin-7-yl)-5-(2-(3,3,3-trifluoro-2-methylpropyl)oxazol-5-yl)picolinonitrile]
52 nM	CC1(Cc2ncc(-c3ccc(C#N)nc3-c3cnc4c(c3)C(=O)N(CCF)C4)o2)CCCC1 [Example 96, 6-(6-(2-fluoroethyl)-5-oxo-6,7-dihydro-5H-pyrrolo[3,4-b]pyridin-3-yl)-5-(2-((1-methylcyclopentyl)methyl)oxazol-5-yl)picolinonitrile]
36 nM	Cc1cn2ccc(-c3nc(C#N)ccc3-c3cnc(CC4CC(F)(F)C4)o3)cc2n1 [Example 98, 5-(2-((3,3-difluorocyclobutyl)methyl)oxazol-5-yl)-6-(2-methylimidazo[1,2-a]pyridin-7-yl)picolinonitrile]
89 nM	Cc1nc2cc(-c3nc(C#N)ccc3-c3cnc(CC4CC(F)(F)C4)o3)ccn2n1 [Example 99, 5-(2-((3,3-difluorocyclobutyl)methyl)oxazol-5-yl)-6-(2-methyl-[1,2,4]triazolo[1,5-a]pyridin-7-yl) picolinonitrile]
158 nM	Cc1cn2ccc(-c3nc(C#N)ccc3-c3cnc(CC4(F)CC4)o3)cc2n1 [Example 100, 5-(2-((1-fluorocyclopropyl)methyl)oxazol-5-yl)-6-(2-methyl-imidazo[1,2-a]pyridin-7-yl)picolinonitrile]
25 nM	N#Cc1ccc(-c2cnc(C[C@@H]3CC[C@H](F)C3)o2)c(-c2ccc3cccnc3c2)n1 [Example 101, 5-(2-(((1S,3S)-3-fluorocyclopentyl)methyl)oxazol-5-yl)-6-(quinolin-7-yl)picolinonitrile]
51 nM	COc1cc2ccc(-c3nc(C)ccc3-c3cnc(C(F)(F)C4CCCC4)o3)cc2nn1 [Example 102, 2-(cyclopentyldifluoromethyl)-5-(2-(3-methoxycinnolin-7-yl)-6-methylpyridin-3-yl)oxazole]
86 nM	CC(C)(F)CCc1ncc(-c2ccc(C#N)nc2-c2ccc3cccnc3c2)o1 [Example 103, 5-(2-(3-fluoro-3-methylbutyl)oxazol-5-yl)-6-(quinolin-7-yl)picolinonitrile]
147 nM	CC(C)(F)CCc1ncc(-c2ccc(C#N)nc2-c2ccn3ccnc3c2)o1 [Example 104, 5-(2-(3-fluoro-3-methylbutyl)oxazol-5-yl)-6-(imidazo[1,2-a]pyridin-7-yl) picolinonitrile]
198 nM	Cc1nc2cc(-c3ncc(F)cc3-c3cnc(CCC(C)(C)F)o3)ccc2n1C [Example 105, 5-(2-(1,2-dimethyl-1H-benzo[d]imidazol-5-yl)-5-fluoropyridin-3-yl)-2-(3-fluoro-3-methylbutyl)oxazole]
143 nM	Cc1cn2ccc(-c3nc(C#N)ccc3-c3cnc(CCC(O)C(F)(F)F)o3)cc2n1 (centres unmarked) [Example 106, 6-(2-methylimidazo[1,2-a]pyridin-7-yl)-5-(2-(4,4,4-trifluoro-3-hydroxybutyl)oxazol-5-yl)picolinonitrile]
96 nM	Cc1cn2ccc(-c3nc(C#N)ccc3-c3cnc(CCC(F)(F)F)o3)cc2n1 [Example 107, 6-(2-methylimidazo[1,2-a]pyridin-7-yl)-5-(2-(3,3,3-trifluoropropyl)oxazol-5-yl)picolinonitrile]
133 nM	Cc1cn2ccc(-c3nc(C#N)ccc3-c3cnc(CCC(F)(F)C(F)(F)F)o3)cc2n1 [Example 108, 6-(2-methylimidazo [1,2-a]pyridin-7-yl)-5-(2-(3,3,4,4,4-pentafluorobutyl)oxazol-5-yl) picolinonitrile]
105 nM	N#Cc1ccc(-c2cnc(CCC(F)(F)C(F)(F)F)o2)c(-c2ccn3ccnc3c2)n1 [Example 109, 6-(imidazo[1,2-a]pyridin-7-yl)-5-(2-(3,3,4,4,4-pentafluorobutyl)oxazol-5-yl) picolinonitrile]
118 nM	Cc1nc2cc(-c3nc(C#N)ccc3-c3cnc(CC(C)(C)C(F)(F)F)o3)ccn2n1 [Example 110, 6-(2-methyl-[1,2,4]triazolo [1,5-a]pyridin-7-yl)-5-(2-(3,3,3-trifluoro-2,2-dimethylpropyl)oxazol-5-yl)picolinonitrile]
114 nM	Cc1nc2cc(-c3nc(C#N)ccc3-c3cnc(CC(C)(C)C(F)(F)F)o3)ccc2n1C [Example 111, 6-(1,2-dimethyl-1H-benzo[d]imidazol-5-yl)-5-(2-(3,3,3-trifluoro-2,2-dimethylpropyl)oxazol-5-yl)picolinonitrile]
182 nM	Cc1nc2cc(-c3nc(C#N)ccc3-c3cnc(CCC(C)(F)F)o3)ccn2n1 [Example 112, 5-(2-(3,3-difluorobutyl)oxazol-5-yl)-6-(2-methyl-[1,2,4]triazolo [1,5-a]pyridin-7-yl)picolinonitrile]
118 nM	Cc1nc2cc(-c3nc(C#N)ccc3-c3cnc(CCC(F)(F)F)o3)ccc2n1C [Example 113, 6-(1,2-dimethyl-1H-benzo[d]imidazol-5-yl)-5-(2-(3,3,3-trifluoropropyl)oxazol-5-yl)picolinonitrile]
92 nM	Cn1cnc2cc(-c3nc(C#N)ccc3-c3cnc(CC(C)(C)C(F)(F)F)o3)ccc21 [Example 114, 6-(1-methyl-1H-benzo[d]imidazol-5-yl)-5-(2-(3,3,3-trifluoro-2,2-dimethylpropyl)oxazol-5-yl)picolinonitrile]
128 nM	Cn1cnc2cc(-c3ncccc3-c3cnc(CC(C)(C)C(F)(F)F)o3)ccc21 [Example 115, 5-(2-(1-methyl-1H-benzo[d]imidazol-5-yl)pyridin-3-yl)-2-(3,3,3-trifluoro-2,2-dimethylpropyl) oxazole]
47 nM	Cc1cn2ccc(-c3nc(C#N)ccc3-c3cnc(CCC(C)(C)F)o3)cc2n1 [Example 116, 5-(2-(3-fluoro-3-methylbutyl)oxazol-5-yl)-6-(2-methylimidazo [1,2-a]pyridin-7-yl)picolinonitrile]
60 nM	Cc1nc2cc(-c3nc(C#N)ccc3-c3cnc(CCC(C)(C)F)o3)ccc2n1C [Example 117, 6-(1,2-dimethyl-1H-benzo[d]imidazol-5-yl)-5-(2-(3-fluoro-3-methylbutyl)oxazol-5-yl) picolinonitrile]

Source: patent US10981902B2 (Merck Sharp & Dohme Corp., priority 2017, dated 2021)
